Measurements as given in patent US20230346961A1, “GLP-1 AND GIP RECEPTOR CO-AGONISTS” (Novo Nordisk A/S, priority 2020, published 2023).
Starred links: 1 amine or outer side, 2 acyl side, 3 side chain; linkers in the order of their positions; H or OH if unused. Non-standard residues stand in square brackets, D forms with d. Residues, ends and D or L forms follow the SMILES beside them. Groups on a side chain read outwards from the residue. *: point of attachment. C20 diacid = O=C(O)CCCCCCCCCCCCCCCCCCC(=O)*; C18 diacid = O=C(O)CCCCCCCCCCCCCCCCC(=O)*; γGlu = O=C(O)[C@H](CCC(=O)[*:2])N[*:1]; εLys = N[C@@H](CCCCN[*:1])C(=O)[*:2]; Trx = NC[C@H]1CC[C@H](C(=O)O)CC1; AEEA = NCCOCCOCC(=O)O; Aib = CC(C)(N)C(=O)O

Key:
human GLP-1 receptor = human GLP-1 receptor (Homo sapiens, UniProt P43220); experiment: cell-based; conditions: hGLP-1R
Sequence of human GLP-1 receptor (P43220 24-463): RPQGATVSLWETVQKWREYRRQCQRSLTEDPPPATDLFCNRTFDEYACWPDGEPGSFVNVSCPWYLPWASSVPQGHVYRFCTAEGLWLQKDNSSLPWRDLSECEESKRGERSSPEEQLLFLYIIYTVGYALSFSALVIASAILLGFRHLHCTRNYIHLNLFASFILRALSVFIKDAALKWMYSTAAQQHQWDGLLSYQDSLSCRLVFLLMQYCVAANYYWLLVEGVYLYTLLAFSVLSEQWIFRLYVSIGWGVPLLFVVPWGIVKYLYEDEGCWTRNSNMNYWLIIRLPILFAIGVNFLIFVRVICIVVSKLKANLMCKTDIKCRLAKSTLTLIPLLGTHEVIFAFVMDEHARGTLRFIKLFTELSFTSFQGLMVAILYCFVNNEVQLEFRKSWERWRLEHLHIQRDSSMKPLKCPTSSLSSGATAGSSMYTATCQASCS

mouse GIP receptor = target: T1, mouse GIP receptor (Mus musculus, UniProt Q0P543); experiment: cell-based
T1 sequence (Q0P543 19-460): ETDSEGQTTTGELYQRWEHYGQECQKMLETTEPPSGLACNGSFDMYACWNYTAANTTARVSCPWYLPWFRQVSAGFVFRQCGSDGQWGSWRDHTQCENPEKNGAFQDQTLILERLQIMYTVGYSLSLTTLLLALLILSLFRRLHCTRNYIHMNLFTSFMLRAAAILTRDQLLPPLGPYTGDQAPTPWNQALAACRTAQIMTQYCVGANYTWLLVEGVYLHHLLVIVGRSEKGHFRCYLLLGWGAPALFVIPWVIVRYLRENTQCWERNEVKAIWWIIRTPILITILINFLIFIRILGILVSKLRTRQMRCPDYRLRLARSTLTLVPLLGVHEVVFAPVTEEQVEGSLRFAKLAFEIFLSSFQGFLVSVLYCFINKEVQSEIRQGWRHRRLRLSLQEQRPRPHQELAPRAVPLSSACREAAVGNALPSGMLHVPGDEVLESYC

mouse GLP-1 receptor = target: T2, mouse GLP-1 receptor (Mus musculus, UniProt O35659)
T2 sequence (O35659 22-463): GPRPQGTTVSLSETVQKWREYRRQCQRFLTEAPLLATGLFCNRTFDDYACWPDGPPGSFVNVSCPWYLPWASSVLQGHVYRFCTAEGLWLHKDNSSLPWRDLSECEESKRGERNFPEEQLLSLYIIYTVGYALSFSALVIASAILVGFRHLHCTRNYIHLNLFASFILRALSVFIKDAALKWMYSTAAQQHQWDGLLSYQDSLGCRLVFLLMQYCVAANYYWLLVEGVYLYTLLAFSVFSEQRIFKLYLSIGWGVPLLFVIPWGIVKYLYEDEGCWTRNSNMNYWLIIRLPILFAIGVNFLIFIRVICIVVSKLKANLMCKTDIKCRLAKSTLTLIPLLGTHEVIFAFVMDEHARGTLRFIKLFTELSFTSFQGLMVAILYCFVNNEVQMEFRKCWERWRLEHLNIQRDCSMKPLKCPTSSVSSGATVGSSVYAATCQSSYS

SMILES	EC50 (human GLP-1 receptor; CRE Luc 0% HSA EC50, 0% HSA) [nM]	EC50 (human GLP-1 receptor; CRE Luc 1% HSA EC50, 1% HSA) [nM]	EC50 (mouse GIP receptor) [nM]	EC50 (mouse GLP-1 receptor) [nM]
CC[C@H](C)[C@H](NC(=O)[C@H](CO)NC(=O)[C@H](Cc1ccc(O)cc1)NC(=O)[C@H](CC(=O)O)NC(=O)[C@H](CO)NC(=O)[C@@H](NC(=O)[C@H](Cc1ccccc1)NC(=O)[C@@H](NC(=O)CNC(=O)[C@H](CCC(=O)O)NC(=O)C(C)(C)NC(=O)[C@@H](N)Cc1ccc(O)cc1)[C@@H](C)O)[C@@H](C)O)C(=O)N[C@@H](Cc1ccc(O)cc1)C(=O)N[C@@H](CC(C)C)C(=O)N[C@@H](CCC(=O)O)C(=O)N[C@@H](CCCCN)C(=O)N[C@@H](CCC(N)=O)C(=O)N[C@@H](C)C(=O)N[C@@H](C)C(=O)NC(C)(C)C(=O)N[C@@H](CCCCNC(=O)[C@@H](N)CCCCNC(=O)[C@@H](N)CCCCNC(=O)CC[C@H](NC(=O)CCCCCCCCCCCCCCCCC(=O)O)C(=O)O)C(=O)N[C@@H](Cc1ccccc1)C(=O)N[C@H](C(=O)N[C@@H](CC(N)=O)C(=O)N[C@@H](Cc1c[nH]c2ccccc12)C(=O)N[C@@H](CC(C)C)C(=O)N[C@@H](CC(C)C)C(=O)N[C@@H](C)C(=O)NCC(=O)NCC(=O)N1CCC[C@H]1C(=O)N[C@@H](CO)C(=O)N[C@@H](CO)C(=O)NCC(=O)N[C@@H](C)C(N)=O)C(C)C [Compound 18] (H-Y[Aib]EGTFTSDYSIYLEKQAA[Aib]K([εLys-εLys-γGlu-C18 diacid])FVNWLLAGGPSSGA-NH2; N-terminus assumed)	0.0033	0.0899	0.0243	0.002
CC[C@H](C)[C@H](NC(=O)[C@H](CO)NC(=O)[C@H](Cc1ccc(O)cc1)NC(=O)[C@H](CC(=O)O)NC(=O)[C@H](CO)NC(=O)[C@@H](NC(=O)[C@H](Cc1ccccc1)NC(=O)[C@@H](NC(=O)CNC(=O)[C@H](CCC(=O)O)NC(=O)C(C)(C)NC(=O)[C@@H](N)Cc1ccc(O)cc1)[C@@H](C)O)[C@@H](C)O)C(=O)N[C@@H](Cc1ccc(O)cc1)C(=O)N[C@@H](CC(C)C)C(=O)N[C@@H](CCC(=O)O)C(=O)N[C@@H](CCC(=O)O)C(=O)N[C@@H](CCC(N)=O)C(=O)N[C@@H](C)C(=O)N[C@@H](C)C(=O)NC(C)(C)C(=O)N[C@@H](CCCCNC(=O)COCCOCCNC(=O)COCCOCCNC(=O)CC[C@H](NC(=O)[C@H]1CC[C@H](CNC(=O)CCCCCCCCCCCCCCCCCCC(=O)O)CC1)C(=O)O)C(=O)N[C@@H](Cc1ccccc1)C(=O)N[C@H](C(=O)N[C@@H](CC(N)=O)C(=O)N[C@@H](Cc1c[nH]c2ccccc12)C(=O)N[C@@H](CC(C)C)C(=O)N[C@@H](CC(C)C)C(=O)N[C@@H](C)C(=O)NCC(=O)NCC(=O)N1CCC[C@H]1C(=O)N[C@@H](CO)C(=O)N[C@@H](CO)C(=O)NCC(=O)N[C@@H](C)C(=O)N1CCC[C@H]1C(=O)N1CCC[C@H]1C(=O)N1CCC[C@H]1C(=O)N[C@@H](CO)C(N)=O)C(C)C [Compound 25] (H-Y[Aib]EGTFTSDYSIYLEEQAA[Aib]K([AEEA-AEEA-γGlu-Trx-C20 diacid])FVNWLLAGGPSSGAPPPS-NH2; N-terminus assumed)	0.0048	0.602	0.34	0.0029
CC[C@H](C)[C@H](NC(=O)[C@H](CO)NC(=O)[C@H](Cc1ccc(O)cc1)NC(=O)[C@H](CC(=O)O)NC(=O)[C@H](CO)NC(=O)[C@@H](NC(=O)[C@H](Cc1ccccc1)NC(=O)[C@@H](NC(=O)CNC(=O)[C@H](CCC(=O)O)NC(=O)C(C)(C)NC(=O)[C@@H](N)Cc1ccc(O)cc1)[C@@H](C)O)[C@@H](C)O)C(=O)N[C@@H](Cc1ccc(O)cc1)C(=O)N[C@@H](CC(C)C)C(=O)N[C@@H](CCC(=O)O)C(=O)N[C@@H](CCC(=O)O)C(=O)N[C@@H](CCC(N)=O)C(=O)N[C@@H](C)C(=O)N[C@@H](C)C(=O)NC(C)(C)C(=O)N[C@@H](CCCCNC(=O)COCCOCCNC(=O)COCCOCCNC(=O)CC[C@H](NC(=O)CCCCCCCCCCCCCCCCCCC(=O)O)C(=O)O)C(=O)N[C@@H](Cc1ccccc1)C(=O)N[C@H](C(=O)N[C@@H](CC(N)=O)C(=O)N[C@@H](Cc1c[nH]c2ccccc12)C(=O)N[C@@H](CC(C)C)C(=O)N[C@@H](CC(C)C)C(=O)N[C@@H](C)C(=O)NCC(=O)NCC(=O)N1CCC[C@H]1C(=O)N[C@@H](CO)C(=O)N[C@@H](CO)C(=O)NCC(=O)N[C@@H](C)C(=O)N1CCC[C@H]1C(=O)N1CCC[C@H]1C(=O)N1CCC[C@H]1C(=O)N[C@@H](CO)C(N)=O)C(C)C [Compound 26] (H-Y[Aib]EGTFTSDYSIYLEEQAA[Aib]K([AEEA-AEEA-γGlu-C20 diacid])FVNWLLAGGPSSGAPPPS-NH2; N-terminus assumed)	0.0047	0.37	0.776	0.0028
CC[C@H](C)[C@H](NC(=O)[C@H](CO)NC(=O)[C@H](Cc1ccc(O)cc1)NC(=O)[C@H](CC(=O)O)NC(=O)[C@H](CO)NC(=O)[C@@H](NC(=O)[C@H](Cc1ccccc1)NC(=O)[C@@H](NC(=O)CNC(=O)[C@H](CCC(=O)O)NC(=O)C(C)(C)NC(=O)[C@@H](N)Cc1ccc(O)cc1)[C@@H](C)O)[C@@H](C)O)C(=O)N[C@@H](Cc1ccc(O)cc1)C(=O)N[C@@H](CC(C)C)C(=O)N[C@@H](CCC(=O)O)C(=O)N[C@@H](CCCCN)C(=O)N[C@@H](CCCCNC(=O)COCCOCCNC(=O)COCCOCCNC(=O)CC[C@H](NC(=O)CCCCCCCCCCCCCCCCCCC(=O)O)C(=O)O)C(=O)N[C@@H](C)C(=O)N[C@@H](C)C(=O)NC(C)(C)C(=O)N[C@@H](CCC(=O)O)C(=O)N[C@@H](Cc1ccccc1)C(=O)N[C@H](C(=O)N[C@@H](CC(N)=O)C(=O)N[C@@H](Cc1c[nH]c2ccccc12)C(=O)N[C@@H](CC(C)C)C(=O)N[C@@H](CC(C)C)C(=O)N[C@@H](C)C(=O)NCC(=O)NCC(=O)N1CCC[C@H]1C(=O)N[C@@H](CO)C(=O)N[C@@H](CO)C(=O)NCC(=O)N[C@@H](C)C(=O)N1CCC[C@H]1C(=O)N1CCC[C@H]1C(=O)N1CCC[C@H]1C(=O)N[C@@H](CO)C(N)=O)C(C)C [Compound 30] (H-Y[Aib]EGTFTSDYSIYLEKK([AEEA-AEEA-γGlu-C20 diacid])AA[Aib]EFVNWLLAGGPSSGAPPPS-NH2; N-terminus assumed)	0.0084	0.353	0.201	0.0019
CC[C@H](C)[C@H](NC(=O)[C@H](CO)NC(=O)[C@H](Cc1ccc(O)cc1)NC(=O)[C@H](CC(=O)O)NC(=O)[C@H](CO)NC(=O)[C@@H](NC(=O)[C@H](Cc1ccccc1)NC(=O)[C@@H](NC(=O)CNC(=O)[C@H](CCC(=O)O)NC(=O)C(C)(C)NC(=O)[C@@H](N)Cc1ccc(O)cc1)[C@@H](C)O)[C@@H](C)O)C(=O)N[C@@H](Cc1ccc(O)cc1)C(=O)N[C@@H](CC(C)C)C(=O)N[C@@H](CCC(=O)O)C(=O)N[C@@H](CCCCN)C(=O)N[C@@H](CCC(N)=O)C(=O)N[C@@H](C)C(=O)N[C@@H](C)C(=O)NC(C)(C)C(=O)N[C@@H](CCCCNC(=O)COCCOCCNC(=O)COCCOCCNC(=O)CC[C@H](NC(=O)[C@H]1CC[C@H](CNC(=O)CCCCCCCCCCCCCCCCCCC(=O)O)CC1)C(=O)O)C(=O)N[C@@H](Cc1ccccc1)C(=O)N[C@H](C(=O)N[C@@H](CC(N)=O)C(=O)N[C@@H](Cc1c[nH]c2ccccc12)C(=O)N[C@@H](CC(C)C)C(=O)N[C@@H](CC(C)C)C(=O)N[C@@H](C)C(=O)NCC(=O)NCC(=O)N1CCC[C@H]1C(=O)N[C@@H](CO)C(=O)N[C@@H](CO)C(=O)NCC(=O)N[C@@H](C)C(N)=O)C(C)C [Compound 32] (H-Y[Aib]EGTFTSDYSIYLEKQAA[Aib]K([AEEA-AEEA-γGlu-Trx-C20 diacid])FVNWLLAGGPSSGA-NH2; N-terminus assumed)	0.0117	0.221	0.0802	0.0025
CC[C@H](C)[C@H](NC(=O)[C@H](CO)NC(=O)[C@H](Cc1ccc(O)cc1)NC(=O)[C@H](CC(=O)O)NC(=O)[C@H](CO)NC(=O)[C@@H](NC(=O)[C@H](Cc1ccccc1)NC(=O)[C@@H](NC(=O)CNC(=O)[C@H](CCC(=O)O)NC(=O)C(C)(C)NC(=O)[C@@H](N)Cc1ccc(O)cc1)[C@@H](C)O)[C@@H](C)O)C(=O)N[C@@H](Cc1ccc(O)cc1)C(=O)N[C@@H](CC(C)C)C(=O)N[C@@H](CCC(=O)O)C(=O)N[C@@H](CCCCNC(=O)[C@@H](N)CCCCNC(=O)[C@@H](N)CCCCNC(=O)CC[C@H](NC(=O)[C@H]1CC[C@H](CNC(=O)CCCCCCCCCCCCCCCCCCC(=O)O)CC1)C(=O)O)C(=O)N[C@@H](CCC(N)=O)C(=O)N[C@@H](C)C(=O)N[C@@H](C)C(=O)NC(C)(C)C(=O)N[C@@H](CCC(=O)O)C(=O)N[C@@H](Cc1ccccc1)C(=O)N[C@H](C(=O)N[C@@H](CCC(N)=O)C(=O)N[C@@H](Cc1c[nH]c2ccccc12)C(=O)N[C@@H](CC(C)C)C(=O)N[C@@H](CC(C)C)C(=O)N[C@@H](CCC(=O)O)C(=O)NCC(=O)NCC(=O)N1CCC[C@H]1C(=O)N[C@@H](CO)C(=O)N[C@@H](CO)C(=O)NCC(=O)N[C@@H](C)C(N)=O)C(C)C [Compound 33] (H-Y[Aib]EGTFTSDYSIYLEK([εLys-εLys-γGlu-Trx-C20 diacid])QAA[Aib]EFVQWLLEGGPSSGA-NH2; N-terminus assumed)	0.0059	0.741	0.0311	0.004
